{
  "source": "patent US11702416B2",
  "about": "“1H-pyrrolo[2,3-c]pyridin-7(6H)-ones and pyrazolo[3,4-c]pyridin-7(6H)-ones as inhibitors of BET proteins” (Incyte Corporation, priority 2014, dated 2023)",
  "tested_on": "KMS.12.BM cell line (human myeloma)",
  "experiment": "KMS.12.BM cell viability assay",
  "type": "cell-based",
  "conditions": "3 days, Cell Titer-GLO ATP quantitation; concentration required for 50% cell death",
  "protocol": "KMS.12.BM cell line (human myeloma) was purchased from JCRB (Osaka, Japan) and maintained in RPMI with 10% FBS culture medium. To measure the cytotoxic activity of the compounds through ATP quantitation, the KMS.12.BM cells are plated in the RPMI culture medium at 5000 cells/well/per 100 μL into a 96-well polystyrene clear black tissue culture plate (Greiner-bio-one through VWR, NJ), in the presence or absence of a concentration range of test compounds. After 3 days, […] Cell Titer-GLO Luminescent (Promega, Madison, Wis.) cell culture agent is added to each well for 10 minutes at room temperature to stabilize the luminescent signal. This determines the number of viable cells in culture based on quantitation of the ATP present, which signals the presence of metabolically active cells. Luminescence is measured with the Top Count 384 (Packard Bioscience through Perkin Elmer, Boston, Mass.). Compound inhibition is determined relative to cells cultured with no drug and the IC50 is reported as the compound concentration required for 50% cell death.",
  "data": [
    {"smiles": "Cn1cc(-c2cc(S(C)(=O)=O)cc3c2NC2(CCC2)C(=O)N3)c2cc[nH]c2c1=O", "note": "[Example 62, 8′-(6-methyl-7-oxo-6,7-dihydro-1H-pyrrolo[2,3-c]pyridin-4-yl)-6′-(methylsulfonyl)-1,4′-dihydro-3H-spiro[cyclobutane-1,2′-quinoxalin]-3′-one]", "values": [
      {"measurement": "IC50", "result": "≤ 1", "unit": "µM"}
    ]}
  ]
}
